Data reported in patent US20260041653A1, “AN HDAC INHIBITOR FOR TREATING CANCER WITH A MODIFIED STK11 ACTIVITY OR EXPRESSION” (Tango Therapeutics, Inc., priority 2022, published 2026).

Test system: MC38_sgStk11 tumor
Assay: Anti-tumor efficacy in murine subcutaneous MC38_sgStk11 tumor model
Assay type: in vivo, Mus musculus
Details: for T/C / TGI %: day 11
Experimental: Summary: An in vivo anti-tumor efficacy of double combination treatment of Anti-PD1 and HDAC1,2-selective inhibitor in a murine subcutaneous MC38_sgStk11 tumor model in […] mice was performed.
96 mice plus 39 spare mice of the species: Mus musculus: strain: C57BL/6; age 8-10 weeks; sex: female; and body weight: 16.9-20.0 g
The MC38_sgStk11 tumor cells were maintained in vitro as a monolayer culture in DMEM+2 mM glutamine supplemented with about 10% heat inactivated fetal bovine serum, about 100 U/ml penicillin and 100 μg/ml streptomycin at about 37° C. in an atmosphere of about 5% CO2 in air. The tumor cells were routinely sub-cultured twice weekly by trypsin-EDTA treatment. The cells growing in an exponential growth phase were harvested and counted for tumor inoculation.
Each mouse was inoculated subcutaneously at the right upper flank with MC38_sgStk11 tumor cells (0.5×106) in 0.1 ml of PBS for tumor development. Treatments were started on day 4 after tumor inoculation when the average tumor size reached 52 mm^3. The animals were assigned into groups according to a sorting standard operating procedures based upon their tumor volumes. Each group consisted of 8 tumor bearing mice. The testing article was administrated to the mice according to the predetermined regimen as shown in the experimental design table (Table 1-1).
All the procedures related to animal handling, care and the treatment in the study were performed according to the guidelines approved by the Institutional Animal Care and Use Committee (IACUC) of vendor following the guidance of the Association for Assessment and Accreditation of Laboratory Animal Care (AAALAC). At the time of routine monitoring, the animals were daily checked for any effects of tumor growth and treatments on normal behavior such as mobility, food and water consumption, body weight gain/loss (body weights were measured three times per week), eye/hair matting and any other abnormal effect as stated in the protocol. Death and observed clinical signs were recorded on the basis of the numbers of animals within each subset.
A primary endpoint was to see if the tumor growth could be delayed or mice could be cured. Tumor size was measured three times per week in two dimensions using a caliper, and the volume was expressed in mm3 using the formula: V=0.5 a×b2 where a and b are the long and short diameters of the tumor, respectively. The T/C value (in percent) is an indication of antitumor effectiveness; T and C are the mean volume of the treated and control groups, respectively, on a given day. TGI is calculated for each group using the formula: TGI (%)=[1−(Ti−T0)/(Vi−V0)]×100; Ti is the average tumor volume of a treatment group on a given day, T0 is the average tumor volume of the treatment group on the day of treatment start, Vi is the average tumor volume of the vehicle control group on the same day with Ti, and V0 is the average tumor volume of the vehicle group on the day of treatment start.
Statistical analysis of difference in the tumor volume among the groups were conducted on the data obtained at the best therapeutic time point at the day 11 after the start of treatment. A one-way ANOVA was performed for comparisons between groups. The survival analysis between groups was carried out with Kaplan-Meier test. p<0.05 was considered to be statistically significant.

[1] = Gr 5: Compound I 75 mg/kg PO QD + Anti-IgG2a 10 mg/kg IP BIW
[2] = Gr 6: Compound I 150 mg/kg D0-D4, 100 mg/kg D5-D48 PO QD + Anti-IgG2a 10 mg/kg IP BIW

`C[S@@](=N)(=O)c1ccc(C(=O)Nc2cc(-c3ccc(F)cc3)ccc2N)cc1` [Compound I, (R)—N-(4-amino-4′-fluoro-[1,1′-biphenyl]-3-yl)-4-(S-methylsulfonimidoyl)benzamide] was tested, and the “PR (partial regression)” value [1] was 0.0%, the “Tumor Volume” value (Gr 5: Compound I 75 mg/kg PO QD + Anti-IgG2a 10 mg/kg IP BIW, day 0 of treatment) was 52 ± 2 mm^3 and the “Tumor Volume” value (Gr 5: Compound I 75 mg/kg PO QD + Anti-IgG2a 10 mg/kg IP BIW, day 2 of treatment) was 218 ± 12 mm^3. For the same compound, the “Tumor Volume” value (Gr 5: Compound I 75 mg/kg PO QD + Anti-IgG2a 10 mg/kg IP BIW, day 4 of treatment) was 485 ± 37 mm^3, the “Tumor Volume” value (Gr 5: Compound I 75 mg/kg PO QD + Anti-IgG2a 10 mg/kg IP BIW, day 7 of treatment) was 576 ± 45 mm^3 and the “Tumor Volume” value (Gr 5: Compound I 75 mg/kg PO QD + Anti-IgG2a 10 mg/kg IP BIW, day 9 of treatment) was 622 ± 44 mm^3. For the same compound, the T/C [1] was 29.7%, the TGI % [1] was 72.1% and the “Tumor Volume” value (Gr 5: Compound I 75 mg/kg PO QD + Anti-IgG2a 10 mg/kg IP BIW, day 11 of treatment) was 632 ± 55 mm^3. For the same compound, the “Tumor Volume” value (Gr 5: Compound I 75 mg/kg PO QD + Anti-IgG2a 10 mg/kg IP BIW, day 14 of treatment) was 580 ± 85 mm^3, the “Tumor Volume” value (Gr 5: Compound I 75 mg/kg PO QD + Anti-IgG2a 10 mg/kg IP BIW, day 16 of treatment) was 557 ± 101 mm^3 and the “Tumor Volume” value (Gr 5: Compound I 75 mg/kg PO QD + Anti-IgG2a 10 mg/kg IP BIW, day 18 of treatment) was 536 ± 109 mm^3. The “Tumor Volume” value (Gr 5: Compound I 75 mg/kg PO QD + Anti-IgG2a 10 mg/kg IP BIW, day 21 of treatment) was 514 ± 117 mm^3, the “Tumor Volume” value (Gr 5: Compound I 75 mg/kg PO QD + Anti-IgG2a 10 mg/kg IP BIW, day 23 of treatment) was 502 ± 138 mm^3 and the “Tumor Volume” value (Gr 5: Compound I 75 mg/kg PO QD + Anti-IgG2a 10 mg/kg IP BIW, day 25 of treatment) was 477 ± 151 mm^3. For the same compound, the “Tumor Volume” value (Gr 5: Compound I 75 mg/kg PO QD + Anti-IgG2a 10 mg/kg IP BIW, day 28 of treatment) was 551 ± 171 mm^3, the “Tumor Volume” value (Gr 5: Compound I 75 mg/kg PO QD + Anti-IgG2a 10 mg/kg IP BIW, day 30 of treatment) was 815 ± 291 mm^3 and the “Tumor Volume” value (Gr 5: Compound I 75 mg/kg PO QD + Anti-IgG2a 10 mg/kg IP BIW, day 32 of treatment) was 1001 ± 375 mm^3. For the same compound, the “Tumor Volume” value (Gr 5: Compound I 75 mg/kg PO QD + Anti-IgG2a 10 mg/kg IP BIW, day 34 of treatment) was 827 ± 268 mm^3, the “Tumor Volume” value (Gr 5: Compound I 75 mg/kg PO QD + Anti-IgG2a 10 mg/kg IP BIW, day 38 of treatment) was 14 mm^3 and the “Tumor Volume” value (Gr 5: Compound I 75 mg/kg PO QD + Anti-IgG2a 10 mg/kg IP BIW, day 42 of treatment) was 13 mm^3. For the same compound, the “Tumor Volume” value (Gr 5: Compound I 75 mg/kg PO QD + Anti-IgG2a 10 mg/kg IP BIW, day 45 of treatment) was 6 mm^3, the “Tumor Volume” value (Gr 5: Compound I 75 mg/kg PO QD + Anti-IgG2a 10 mg/kg IP BIW, day 49 after start of treatment) was 0 mm^3 and the “Tumor Volume” value (Gr 5: Compound I 75 mg/kg PO QD + Anti-IgG2a 10 mg/kg IP BIW, day 52 after start of treatment) was 0 mm^3. The “Tumor Volume” value (Gr 5: Compound I 75 mg/kg PO QD + Anti-IgG2a 10 mg/kg IP BIW, day 56 after start of treatment) was 0 mm^3, the “Tumor Volume” value (Gr 5: Compound I 75 mg/kg PO QD + Anti-IgG2a 10 mg/kg IP BIW, day 59 after start of treatment) was 0 mm^3 and the “Tumor Volume” value (Gr 5: Compound I 75 mg/kg PO QD + Anti-IgG2a 10 mg/kg IP BIW, day 63 after start of treatment) was 0 mm^3. The “Tumor Volume” value (Gr 5: Compound I 75 mg/kg PO QD + Anti-IgG2a 10 mg/kg IP BIW, day 66 after start of treatment) was 0 mm^3, the “CR (complete regression)” value [2] was 0.0% and the “ORR (CR + PR)” value [2] was 0.0%. For the same compound, the “PR (partial regression)” value [2] was 0.0%, the “Tumor Volume” value (Gr 6: Compound I 150 mg/kg D0-D4, 100 mg/kg D5-D48 PO QD + Anti-IgG2a 10 mg/kg IP BIW, day 0 of treatment) was 52 ± 2 mm^3 and the “Tumor Volume” value (Gr 6: Compound I 150 mg/kg D0-D4, 100 mg/kg D5-D48 PO QD + Anti-IgG2a 10 mg/kg IP BIW, day 2 of treatment) was 205 ± 14 mm^3. For the same compound, the “Tumor Volume” value (Gr 6: Compound I 150 mg/kg D0-D4, 100 mg/kg D5-D48 PO QD + Anti-IgG2a 10 mg/kg IP BIW, day 4 of treatment) was 450 ± 40 mm^3, the “Tumor Volume” value (Gr 6: Compound I 150 mg/kg D0-D4, 100 mg/kg D5-D48 PO QD + Anti-IgG2a 10 mg/kg IP BIW, day 7 of treatment) was 508 ± 40 mm^3 and the “Tumor Volume” value (Gr 6: Compound I 150 mg/kg D0-D4, 100 mg/kg D5-D48 PO QD + Anti-IgG2a 10 mg/kg IP BIW, day 9 of treatment) was 636 ± 19 mm^3. For the same compound, the T/C [2] was 41.2%, the TGI % [2] was 60.2% and the “Tumor Volume” value (Gr 6: Compound I 150 mg/kg D0-D4, 100 mg/kg D5-D48 PO QD + Anti-IgG2a 10 mg/kg IP BIW, day 11 of treatment) was 878 ± 66 mm^3. The “Tumor Volume” value (Gr 6: Compound I 150 mg/kg D0-D4, 100 mg/kg D5-D48 PO QD + Anti-IgG2a 10 mg/kg IP BIW, day 14 of treatment) was 1090 ± 167 mm^3, the “Tumor Volume” value (Gr 6: Compound I 150 mg/kg D0-D4, 100 mg/kg D5-D48 PO QD + Anti-IgG2a 10 mg/kg IP BIW, day 16 of treatment) was 1236 ± 211 mm^3 and the “Tumor Volume” value (Gr 6: Compound I 150 mg/kg D0-D4, 100 mg/kg D5-D48 PO QD + Anti-IgG2a 10 mg/kg IP BIW, day 18 of treatment) was 1414 ± 243 mm^3. For the same compound, the “Tumor Volume” value (Gr 6: Compound I 150 mg/kg D0-D4, 100 mg/kg D5-D48 PO QD + Anti-IgG2a 10 mg/kg IP BIW, day 21 of treatment) was 1728 ± 366 mm^3, the “Tumor Volume” value (Gr 6: Compound I 150 mg/kg D0-D4, 100 mg/kg D5-D48 PO QD + Anti-IgG2a 10 mg/kg IP BIW, day 23 of treatment) was 2198 ± 472 mm^3 and the “Tumor Volume” value (Gr 6: Compound I 150 mg/kg D0-D4, 100 mg/kg D5-D48 PO QD + Anti-IgG2a 10 mg/kg IP BIW, day 25 of treatment) was 2054 ± 638 mm^3. For the same compound, the “Tumor Volume” value (Gr 6: Compound I 150 mg/kg D0-D4, 100 mg/kg D5-D48 PO QD + Anti-IgG2a 10 mg/kg IP BIW, day 28 of treatment) was 1705 ± 330 mm^3, the “Tumor Volume” value (Gr 6: Compound I 150 mg/kg D0-D4, 100 mg/kg D5-D48 PO QD + Anti-IgG2a 10 mg/kg IP BIW, day 30 of treatment) was 1840 ± 326 mm^3 and the “Tumor Volume” value (Gr 6: Compound I 150 mg/kg D0-D4, 100 mg/kg D5-D48 PO QD + Anti-IgG2a 10 mg/kg IP BIW, day 32 of treatment) was 1949 ± 395 mm^3. The “Tumor Volume” value (Gr 6: Compound I 150 mg/kg D0-D4, 100 mg/kg D5-D48 PO QD + Anti-IgG2a 10 mg/kg IP BIW, day 34 of treatment) was 2089 ± 389 mm^3.
